Experimental data from US20240116985A1, “STAPLED PEPTIDES AND METHODS THEREOF” (priority 2020, published 2024).
Where two headings read alike, the source gives them in different places.

Assays:
[1] = target: T1, beta-catenin/TCF4 engagement (Homo sapiens, UniProt P35222); assay: Nano-BRET target engagement assay (B-cat-Halo & TCF4-Luc in HEK293 cells); type: cell-based; conditions: read-out: NanoBRET Abs IC50
T1 construct: expressed in transfected cells; host or cells: HEK293
T1 sequence (P35222 1-781): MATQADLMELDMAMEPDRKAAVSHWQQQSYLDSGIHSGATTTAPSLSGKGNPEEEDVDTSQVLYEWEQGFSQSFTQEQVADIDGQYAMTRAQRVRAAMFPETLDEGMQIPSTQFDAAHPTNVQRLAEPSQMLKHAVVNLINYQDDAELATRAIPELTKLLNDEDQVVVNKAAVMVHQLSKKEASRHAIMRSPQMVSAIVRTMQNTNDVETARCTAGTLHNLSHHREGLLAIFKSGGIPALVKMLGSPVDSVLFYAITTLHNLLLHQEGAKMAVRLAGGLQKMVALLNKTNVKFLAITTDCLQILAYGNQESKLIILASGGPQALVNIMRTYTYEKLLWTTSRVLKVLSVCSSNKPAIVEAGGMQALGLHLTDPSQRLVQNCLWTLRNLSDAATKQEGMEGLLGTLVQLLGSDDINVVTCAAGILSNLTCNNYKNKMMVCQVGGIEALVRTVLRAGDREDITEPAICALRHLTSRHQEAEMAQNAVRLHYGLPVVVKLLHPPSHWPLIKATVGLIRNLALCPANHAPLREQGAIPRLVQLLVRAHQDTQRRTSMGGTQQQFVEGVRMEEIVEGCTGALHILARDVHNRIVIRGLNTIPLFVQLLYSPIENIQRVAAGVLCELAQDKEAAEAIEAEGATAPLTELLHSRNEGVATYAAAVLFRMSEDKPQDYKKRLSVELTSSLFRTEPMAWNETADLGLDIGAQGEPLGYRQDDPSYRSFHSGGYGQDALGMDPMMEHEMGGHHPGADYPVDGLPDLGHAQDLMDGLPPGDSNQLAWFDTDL

[2] = target: T2, full-length beta-Catenin (Uniprot ID P35222) (Homo sapiens, UniProt P35222); assay: Fluorescence polarization IC50 (beta-catenin / 5FAM-TCF4 10-53 competition); type: binding; conditions: read-out: beta-Catenin FP IC50
T2 construct: 10 nM full-length beta-Catenin (Uniprot ID P35222)
T2 sequence (P35222 1-781): T1 sequence (P35222 1-781)

SMILES	IC50 ([1]; absolute IC50) [nM]	IC50 ([2]; fluorescence polarization) [nM]	IC50 [1] [nM]	IC50 [2] [nM]
CC(=O)N1CCC[C@]12CCCCCCC1(CCCCCCCCOC(=O)N3CC[C@@](C(=O)N[C@@H](CC4CCCC4)C(=O)N[C@@H](Cc4csc5ccccc45)C(=O)N[C@@H](CCC(N)=O)C(N)=O)(C3)NC(=O)[C@H](CC(C)C)NC(=O)[C@H](Cc3ccccc3)NC(=O)[C@H](C)NC(=O)[C@H](C)NC(=O)[C@H](CN(CC(=O)O)CC(F)(F)F)NC(=O)[C@H](CC(=O)O)NC1=O)NC(=O)[C@H](CC(C)(C)C)NC(=O)[C@H](CC(=O)O)NC2=O (stereo partly drawn) [I-1713, Ac-PL3-Asp-Npg-B5-Asp-TfeGA-Ala-Ala-Phe-Leu-PyrS2-CypA-BztA-Gln-NH2]	> 20000	498		
CC(=O)N1CCC[C@]12CC=CCCCC1(CCCC=CCCCOC(=O)N3CC[C@@](C(=O)N[C@@H](Cc4ccsc4)C(=O)N[C@@H](Cc4csc5ccccc45)C(=O)N[C@H](C(N)=O)C(C)C)(C3)NC(=O)[C@H](CC(C)C)NC(=O)[C@H](Cc3ccccc3)NC(=O)[C@H](C)NC(=O)[C@H](CC(=O)N(C)C)NC(=O)[C@H](Cc3cccc(C(=O)O)c3)NC(=O)[C@H](CC(=O)O)NC1=O)NC(=O)[C@H](CC(C)(C)C)NC(=O)[C@H](CC(=O)O)NC2=O (stereo partly drawn) [I-2191, Ac-PL3-Asp-Npg-B5-Asp-3COOHF-Me2Asn-Ala-Phe-Leu-PyrS2-3Thi-BztA-Val-NH2]		16	29500	
CC(=O)N1CCC[C@]12CC=CCCCC1(CCCC=CCCCCCC[C@@](C)(C(=O)N[C@@H](Cc3cccs3)C(=O)N[C@@H](Cc3csc4ccccc34)C(=O)N[C@H](CO)[C@@H](C)O)NC(=O)[C@H](CCO)NC(=O)[C@H](Cc3ccccc3)NC(=O)[C@H](C)NC(=O)[C@H](C)NC(=O)[C@H](CC(=O)O)NC(=O)[C@H](CC(=O)O)NC1=O)NC(=O)[C@H](CC(C)(C)C)NC(=O)[C@H](CC(=O)O)NC2=O (stereo partly drawn) [I-1393, Ac-PL3-Asp-Npg-B5-Asp-Asp-Ala-Ala-Phe-Hse-S8-2Thi-BztA-Thro1]	18600	34		
CC[C@@H]1NC(=O)[C@H](Cc2ccccc2)NC(=O)[C@H](C)NC(=O)C(C)(C)NC(=O)[C@H](Cc2cccc(C(=O)O)c2)NC(=O)[C@H](CC(=O)O)NC(=O)C2(CCCC=CCCCOC(=O)N3CC[C@@](C(=O)N[C@@H](Cc4ccsc4)C(=O)N[C@@H](Cc4csc5ccccc45)C(=O)N[C@@H](CCC(=O)N4CCC(N5CCCCC5)CC4)C(N)=O)(C3)NC1=O)CCCC=CC[C@]1(CCCN1C(C)=O)C(=O)N[C@@H](CC(=O)O)C(=O)N[C@@H](CC(C)(C)C)C(=O)N2 (stereo partly drawn) [I-2560, Ac-PL3-Asp-Npg-B5-Asp-3COOHF-Aib-Ala-Phe-Abu-PyrS2-3Thi-BztA-[4Pippip]GlnR-NH2]	19300	9		
CC(=O)N1CCC[C@]12CC=CCCCC1(CCCC=CCCCOC(=O)N3CC[C@@](C(=O)N[C@@H](Cc4ccccc4Cl)C(=O)N[C@@H](Cc4csc5ccccc45)C(=O)N[C@@H](CCC(N)=O)C(N)=O)(C3)NC(=O)[C@H](CC(C)C)NC(=O)[C@H](Cc3ccccc3)NC(=O)CNC(=O)C(C)(C)NC(=O)[C@H](Cc3cccc(C(=O)O)c3)NC(=O)[C@H](CC(=O)O)NC1=O)NC(=O)[C@H](CC(C)(C)C)NC(=O)[C@H](CC(=O)O)NC2=O (stereo partly drawn) [I-1689, Ac-PL3-Asp-Npg-B5-Asp-3COOHF-Aib-Gly-Phe-Leu-PyrS2-2C1F-BztA-Gln-NH2]	12500	25.5		
CC(=O)N1CCC[C@]12CC=CCCCC1(CCCC=CCCCOC(=O)N3CC[C@@](C(=O)N[C@@H](Cc4ccccc4C(F)(F)F)C(=O)N[C@@H](Cc4csc5c(Cl)cccc45)C(=O)N[C@@H](CCC(N)=O)C(N)=O)(C3)NC(=O)[C@H](CC(C)C)NC(=O)[C@H](Cc3ccccc3)NC(=O)[C@H](C)NC(=O)[C@H](C)NC(=O)[C@H](Cc3cccc(C(=O)O)c3)NC(=O)[C@H](CC(=O)O)NC1=O)NC(=O)[C@H](CC(C)(C)C)NC(=O)[C@H](CC(=O)O)NC2=O (stereo partly drawn) [I-2486, Ac-PL3-Asp-Npg-B5-Asp-3COOHF-Ala-Ala-Phe-Leu-PyrS2-2F3MeF-7C1BztA-Gln-NH2]	3700	34		
CC(=O)N1CCC[C@]12CC=CCCCC1(CCCC=CCCCOC(=O)N3CC[C@@](C(=O)N[C@@H](Cc4ccsc4)C(=O)N[C@@H](Cc4csc5ccccc45)C(=O)N[C@@H](CCC(N)=O)C(N)=O)(C3)NC(=O)[C@H](CCO)NC(=O)[C@H](Cc3ccccc3)NC(=O)[C@H](C)NC(=O)[C@H](C)NC(=O)[C@H](Cc3ccc(O)cc3)NC(=O)[C@H](CC(=O)O)NC1=O)NC(=O)[C@H](CC(C)(C)C)NC(=O)[C@H](CC(=O)O)NC2=O (stereo partly drawn) [I-1783, Ac-PL3-Asp-Npg-B5-Asp-Tyr-Ala-Ala-Phe-Hse-PyrS2-3Thi-BztA-Gln-NH2]	> 20000	101		
COCCC(=O)N1CCC[C@]12CC=CCCCC1(CCCC=CCCCOC(=O)N3CC[C@@](C(=O)N[C@@H](Cc4ccccc4Cl)C(=O)N[C@@H](Cc4csc5ccccc45)C(=O)N[C@@H](C(N)=O)[C@H](C)O)(C3)NC(=O)[C@H](CC(N)=O)NC(=O)[C@H](Cc3ccccc3)NC(=O)[C@H](C)NC(=O)[C@H](C)NC(=O)[C@H](CC(=O)O)NC(=O)[C@H](CC(=O)O)NC1=O)NC(=O)[C@H](CC(C)(C)C)NC(=O)[C@H](CC(=O)O)NC2=O (stereo partly drawn) [I-1259, MeOPr-PL3-Asp-Npg-B5-Asp-Asp-Ala-Ala-Phe-Asn-PyrS2-2C1F-BztA-dThr-NH2]	18100	10		
CC(=O)N1CCC[C@]12CC=CCCCC1(CCCC=CCCCOC(=O)N3CC[C@@](C(=O)N[C@@H](Cc4ccsc4)C(=O)N[C@@H](Cc4csc5ccccc45)C(=O)N[C@@H](CCC(N)=O)C(N)=O)(C3)NC(=O)[C@H](CC(C)C)NC(=O)[C@H](Cc3ccccc3)NC(=O)[C@H](C)NC(=O)[C@H](C)NC(=O)[C@H](Cc3c[nH]cn3)NC(=O)[C@H](CC(=O)O)NC1=O)NC(=O)[C@H](CC(C)(C)C)NC(=O)[C@H](CC(=O)O)NC2=O (stereo partly drawn) [I-1796, Ac-PL3-Asp-Npg-B5-Asp-His-Ala-Ala-Phe-Leu-PyrS2-3Thi-BztA-Gln-NH2]	> 20000	22		
CC(=O)N1CCC[C@]12CC=CCCCC1(CCCC=CCCCOC(=O)N3CC[C@@](C(=O)N[C@@H](Cc4ccccc4Cl)C(=O)N[C@@H](Cc4csc5ccccc45)C(=O)N[C@H](C(N)=O)C(C)C)(C3)NC(=O)[C@H](CC(N)=O)NC(=O)[C@H](Cc3ccccc3)NC(=O)[C@H](C)NC(=O)[C@H](C)NC(=O)[C@H](Cc3cccc(C(=O)O)c3)NC(=O)[C@H](CC(=O)O)NC1=O)NC(=O)[C@H](CC(C)(C)C)NC(=O)[C@H](CC(=O)O)NC2=O (stereo partly drawn) [I-2032, Ac-PL3-Asp-Npg-B5-Asp-3COOHF-Ala-Ala-Phe-Asn-PyrS2-2C1F-BztA-Val-NH2]		16	20900	
CC(=O)N1CCC[C@]12CC=CCCCC1(CCCC=CCCCOC(=O)N3CC[C@@](C(=O)N[C@@H](Cc4ccccc4Cl)C(=O)N[C@@H](Cc4csc5ccccc45)C(=O)N[C@H](CO)Cc4ccccc4)(C3)NC(=O)[C@H](CC(N)=O)NC(=O)[C@H](Cc3ccccc3)NC(=O)[C@H](C)NC(=O)[C@H](C)NC(=O)[C@H](CC(=O)O)NC(=O)[C@H](CC(=O)O)NC1=O)NC(=O)[C@H](CC(C)(C)C)NC(=O)[C@H](CC(=O)O)NC2=O (stereo partly drawn) [I-1083, Ac-PL3-Asp-Npg-B5-Asp-Asp-Ala-Ala-Phe-Asn-PyrS2-2C1F-BztA-Pheo1]	18800			8
CCN(CC[C@@H]1NC(=O)[C@H](CC(=O)O)NC(=O)C2(CCCC=CCCCOC(=O)N3CC[C@@](C(=O)N[C@@H](Cc4ccsc4)C(=O)N[C@@H](Cc4csc5ccccc45)C(=O)N[C@@H](CCC(N)=O)C(N)=O)(C3)NC(=O)[C@H](CC(C)C)NC(=O)[C@H](Cc3ccccc3)NC(=O)[C@H](C)NC(=O)[C@H](C)NC1=O)CCCC=CC[C@]1(CCCN1C(C)=O)C(=O)N[C@@H](CC(=O)O)C(=O)N[C@@H](CC(C)(C)C)C(=O)N2)CC(=O)O (stereo partly drawn) [I-1835, Ac-PL3-Asp-Npg-B5-Asp-[Et]GAbu-Ala-Ala-Phe-Leu-PyrS2-3Thi-BztA-Gln-NH2]	31900	34		
CC(=O)N1CCC[C@]12CC=CCCCC1(CCCC=CCCCOC(=O)N3CC[C@@](C(=O)N[C@@H](Cc4ccsc4)C(=O)N[C@@H](Cc4csc5ccccc45)C(=O)N[C@@H](CCC(N)=O)C(N)=O)(C3)NC(=O)[C@H](CC(C)C)NC(=O)[C@H](Cc3ccccc3)NC(=O)[C@H](C)NC(=O)[C@H](C)NC(=O)[C@H](CN(CC(=O)O)C(=O)CCCN(C)C)NC(=O)[C@H](CC(=O)O)NC1=O)NC(=O)[C@H](CC(C)(C)C)NC(=O)[C@H](CC(=O)O)NC2=O (stereo partly drawn) [I-2233, Ac-PL3-Asp-Npg-B5-Asp-[NdiMeButC]GA-Ala-Ala-Phe-Leu-PyrS2-3Thi-BztA-Gln-NH2]	> 20000	14		
